Data taken from patent publication US10160972B2, “Methods and materials for treating cancer” (Mayo Foundation for Medical Education and Research, priority 2012, dated 2018).

Experiments:
A498 ccRCC xenografts [1] = assay: IHC analysis of resected xenograft tumors
Procedure: The TMAs were mounted on slides from paraffin-embedded blocks according to IHC procedure and samples were blocked with Diluent that contained Background Reducing Components (Dakocytomation) for 30 min and then probed for SCD1, Ki67, Caspase-3, CD31, phospho-mTOR, DDIT3, and XBP1. […] Stain scoring was done using algorithms generated with Imagescope software created by a histologist. H-scores were calculated based upon signal intensity (0-3+) using the formula: [(1+%×1)+(2+%×2)+(3+%×3)], intensity (I)-scores were calculated by dividing signal intensity by area, and nuclear (N)-scores were calculated by dividing % positive nuclei by total nuclei examined per area. Cases where insufficient tumor tissue presented were excluded from the study. 20× images were obtained using Scanscope XT and Imagescope software.
IHC analysis of tumors resected from each treatment group was analyzed for proliferation, angiogenesis, and cell death (FIG. 6B).

Calu-1 lung cancer cells = assay: Cell number growth inhibition assay; type: cell-based, human
Procedure: (§1) A number of cancer cell lines were tested to determine whether SCD1 protein expression correlates with growth inhibition of an SCD1 inhibitor in human cancer cell lines.
(§2) Cells (20,000/ml) were plated in 12 well cell culture plates, allowed to attach and treated with the indicated dose of SCD1 inhibitor ([…]) or standard of care (gemcitabine). Cell number was counted using a Coulter Counter. As show in FIG. 7, the data are expressed as percent of DMSO control. Each value represents triplicates. Western analysis for SCD1 protein expression was performed on each cell line with beta-actin as the loading control.
(§3) The following cell lines were studied using a similar method as that described above.

HT29 colon cancer cells = assay: Cell number growth inhibition assay; type: cell-based, human
Procedure: as §1, §2, §3

[2] = system: SNU449 liver cancer cells; assay: Cell number growth inhibition assay; type: cell-based, human; conditions: SNU449
Procedure: as §1, §2, §3

[3] = system: MCF-7 (ER+/PR+) breast cancer cells; assay: Cell number growth inhibition assay; type: cell-based, human
Procedure: as §1, §2, §3

[4] = system: A549 nonsmall cell lung cancer cells; assay: Cell number growth inhibition assay; type: cell-based, human
Procedure: as §1, §2, §3

[5] = system: BCJ4T bladder cancer cells; assay: Cell number growth inhibition assay; type: cell-based, human
Procedure: as §1, §2, §3

Mela 11 melanoma cells = assay: Cell number growth inhibition assay; type: cell-based, human
Procedure: as §1, §2, §3

[6] = system: HOV TAX2 ovarian cancer cells; assay: Cell number growth inhibition assay; type: cell-based, human
Procedure: as §1, §2, §3

A375 melanoma cells = assay: Cell number growth inhibition assay; type: cell-based, human
Procedure: as §1, §2, §3

[7] = system: OVCA420 ovarian cancer cells; assay: Cell number growth inhibition assay; type: cell-based, human
Procedure: as §1, §2, §3

T24 bladder cancer cells = assay: Cell number growth inhibition assay; type: cell-based, human
Procedure: as §1, §2, §3

[8] = system: KTC3 thyroid cancer cells; assay: Cell number growth inhibition assay; type: cell-based, human
Procedure: as §1, §2, §3

Caco2 colon cancer cells = assay: Cell number growth inhibition assay; type: cell-based, human
Procedure: as §1, §2, §3

[9] = system: DU-145 prostate cancer cells; assay: Cell number growth inhibition assay; type: cell-based, human
Procedure: as §1, §2, §3

[10] = system: T47D (PR+) breast cancer cells; assay: Cell number growth inhibition assay; type: cell-based, human
Procedure: as §1, §2, §3

[11] = system: LNCAP prostate cancer cells; assay: Cell number growth inhibition assay; type: cell-based, human
Procedure: as §1, §2, §3

[12] = system: MDA-231 (triple negative) breast cancer cells; assay: Cell number growth inhibition assay; type: cell-based, human
Procedure: as §1, §2, §3

[13] = system: HT1376 bladder cancer cells; assay: Cell number growth inhibition assay; type: cell-based, human
Procedure: as §1, §2, §3

[14] = system: Caki1, A498, Caki2, and ACHN ccRCC cells; assay: Gene array expression analysis; type: cell-based, human; conditions: 75 nM, 24 hours, vs DMSO control
Procedure: Gene array expression analysis was performed using Affymetrix Human Genome U133 Plus 2.0 Array chip. The details of the data processing and methodology were previously described in (Tun H W, Marlow L A, von Roemeling C A, Cooper S J, Kreinest P, Wu K, et al. Pathway signature and cellular differentiation in clear cell renal cell carcinoma. PLoS One. 2010; 5:e10696). Gene expression data was deposited at Gene Expression Omnibus (Accession#GSE41485). Pathway analysis was performed using IPA (Ingenuity® Systems).

A498 ccRCC xenografts [15] = assay: Western blot of CHOP in xenograft tumor tissue; type: in vivo, athymic nude (nu/nu) mice; conditions: normalized to β-actin, tumor tissue samples
Procedure: Protein extracts, electrophoresis, and membrane transfers were prepared as previously described (Copland J A, Marlow L A, Kurakata S, Fujiwara K, Wong A K, Kreinest P A, et al. Novel highaffinity PPARgamma agonist alone and in combination with paclitaxel inhibits human anaplastic thyroid carcinoma tumor growth via p21WAF1/CIP1. Oncogene. 2006; 25:2304-17). Primary antibodies included SCD1, PARP, DDIT3, BiP, sXBP1, and β-actin. A Supersignal chemiluminescent kit was used to perform detection.

Caki1 cells = assay: qPCR of five ER stress genes; type: cell-based, human
Procedure: (§4) An RNAqueous Midi Kit was utilized to extract and purify RNA from cell lines. Human tissue RNA was prepared using TRIzol® per manufacturer's protocol followed by purification using the RNAqueous Midi Kit. The O.D. 260/280 ratio of the mRNA was at least 1.8 and the 18s/28s bands were verified on a 1% agarose gel. cDNA was prepared from purified RNA samples using High Capacity cDNA Reverse Transcriptase Kit per manufacturer's instruction. TaqMan®Fast Universal PCR Master Mix and TaqMan®FAMTM dye-labeled probes including POLR2A (Hs00172187_m1) (normalization control), SCD1 (Hs01682761_m1), HSPA5 (Hs99999174_m1), CEBPβ (CEBPB Hs00270923_s1), GADD45A (Hs00169255_m1), DDIT3 (Hs01090850_m1), and HERPUD1 (Hs01124269_m1) were combined with prepared cDNA samples to analyze relative mRNA expression via qPCR. Fold change values were compared between normal and tumor, non-target scrambled lentiviral and target lentiviral infected, and DMSO vs. A939572 treated samples using the ΔΔCt method (Schmittgen T D, Livak K J. Analyzing real-time PCR data by the comparative C(T) method. Nat Protoc. 2008; 3:1101-8).
(§5) In order to validate the specificity of ER stress induction mediated by both A939572 and shSCD780, rescue assays were performed using OA-BSA in Caki1 and A498 cells qPCR analysis of five ER stress genes identified in the gene array including BiP, CHOP, HERPUD1 (homocysteine-inducible, ER-stress inducible, ubiquitin-like-1), GADD45a (DNA damage inducible transcript 1, DDIT1), and CEBPβ (CCAAT/enhancer binding protein beta) were examined.

A498 cells = assay: qPCR of five ER stress genes; type: cell-based, human
Procedure: as §4, §5

[16] = read-out: estimated IC50 concentration, growth inhibition

CNC(=O)c1cccc(NC(=O)N2CCC(Oc3ccccc3Cl)CC2)c1 [A939572]
cell death, cleaved caspase-3 (CC3) (A498 ccRCC xenografts [1]; vs placebo / other groups): moderate increase | proliferation, percent positivity of nuclear Ki67 staining (A498 ccRCC xenografts [1]; vs placebo control): decreased proliferation | growth inhibition (Calu-1 lung cancer cells): not growth inhibited | growth inhibition (HT29 colon cancer cells): growth inhibited in a dose dependent fashion | growth inhibition [2]: growth inhibited in a dose dependent fashion | IC50 [2, 16]: ~0.1 µM | growth inhibition [3]: growth inhibited in a dose dependent fashion | growth inhibition [4]: growth inhibited in a dose dependent fashion | growth inhibition [5]: not growth inhibited | growth inhibition (Mela 11 melanoma cells): not growth inhibited | growth inhibition [6]: growth inhibited in a dose dependent fashion | growth inhibition (A375 melanoma cells): growth inhibited in a dose dependent fashion | IC50 (A375 melanoma cells; [16]): ~0.05 µM | growth inhibition [7]: growth inhibited in a dose dependent fashion | growth inhibition (T24 bladder cancer cells): growth inhibited in a dose dependent fashion | growth inhibition [8]: growth inhibited in a dose dependent fashion | growth inhibition (Caco2 colon cancer cells): growth inhibited in a dose dependent fashion | growth inhibition [9]: growth inhibited in a dose dependent fashion | growth inhibition [10]: growth inhibited in a dose dependent fashion | growth inhibition [11]: growth inhibited in a dose dependent fashion | growth inhibition [12]: growth inhibited in a dose dependent fashion | growth inhibition [13]: growth inhibited in a dose dependent fashion | expression of ER stress response genes associated with UPR [14]: increased expression of ER stress response genes | CHOP expression (ER stress) (A498 ccRCC xenografts [15]): Increased expression of CHOP | ER stress gene expression with addition of OA-BSA (Caki1 cells; Caki1, + OA-BSA): blocked | mRNA expression of ER stress genes BiP, CHOP, HERPUD1, GADD45a, CEBPβ (Caki1 cells; Caki1, vs DMSO+BSA or NT control): significantly increased levels | ER stress gene expression with addition of OA-BSA (A498 cells; A498, + OA-BSA): blocked | mRNA expression of ER stress genes BiP, CHOP, HERPUD1, GADD45a, CEBPβ (A498 cells; A498, vs DMSO+BSA or NT control): significantly increased levels
